The test system of this test is activated β-catenin signaling. Description: Wnt/β-catenin markers in MDA-MB-231 tumors of treated mice. In kind it is in vivo. The note with it: 20 mg/kg once daily i.p. From the text:
All animal studies are approved by the Scripps Florida IACUC. Stable pools of MDA-MB-231-Luc, MDA-MB-231, MDA-MB-468, SKBR3 or BT474 cells were established by injection of 2×10^6 cancer cells into the mammary fat pads of 6-week old female athymic nude mice (Charles River Laboratories). Establishment of BCM-4013 patient derived xenografts were as described (19). Briefly, fresh xenograft tumor fragments (˜1 mm^3) were transplanted into the cleared mammary fat pad of recipient SCID/Bg mice (Charles River Laboratories). Mice were treated with SR-3029 or vehicle (10:10:80, DMSO:Tween-80:Water) at 20 mg/kg daily by i.p. injection. Tumor volumes were measured as the indicated intervals using calipers or by luminescence imaging using the IVIS 100 imager (exposure time, 1-60 sec; binning 8; field of view 15-cm; f/stop 1; open filter) following subcutaneous injection of luciferin (15 mg/ml, Goldbio Technology). Average radiance (p/s/cm^2/sr) was determined from tumor region-of-interest (ROI) using Living-Image (Xenogen) analysis software. SDS-PAGE gel electrophoresis was performed using NuPAGE 4-12% Bis-Tris gels (Invitrogen) and transferred to PVDF membranes by semi-dry transfer using trans-blot transfer medium (Biorad). Membranes were blocked in Odyssey blocking buffer (LI-COR Biosciences) and incubated overnight at 4° C. with primary antibodies. After repeated washes with TBST (20 mM Tris, pH 7.6, 140 mM NaCl and 0.1% Tween-20) blots were incubated with the appropriate IRDye-conjugated secondary antibody (LI-COR Biosciences) and imaged using the LI-COR Odyssey. Bands were quantified using the Odyssey software (LI-COR Biosciences). The following antibodies were used in this study: CK1δ and Histone H4 (Abcam), CK1ε, c-Myc (9E10), Cyclin-D1 and β-actin (Santa Cruz), β-catenin (Cell Signaling), GAPDH (Millipore) and CD44 (R&D Systems). Total RNA was obtained using the RNeasy Plus Mini Kit (Qiagen) and 1-2 μg of RNA was reverse transcribed with Superscript III First Strand Synthesis System (Life Technologies). Quantitative PCR was performed using the Power SYBR Green PCR Master Mix (Life Technologies) and the ABI7900HT Fast Real-Time PCR System. Intron-spanning gene-specific primer pairs were designed using the Primer3 algorithm and relative expression values for each gene of interest obtained by normalizing to GAPDH mRNA expression using the ^ΔΔCt method.

Structures are written as SMILES.

On to `Fc1cccc(-n2cnc3c(NCc4nc5ccc(F)c(F)c5[nH]4)nc(N4CCOCC4)nc32)c1` [SR-3029], for which, for the setting “7 days”, the “CCND1, WNT3, WNT9A and RARA mRNA transcripts in tumors” value was “decreases”; the “SFRP1 transcripts in tumors” value is “marked increase”; the “expression of nuclear β-catenin in tumors” value is reported as “markedly reduced”. Also, the “CCND1 protein in tumors” value (day 7) was “down-regulation”.
